In PMC11992618, “Development of cyclopeptide inhibitors specifically disrupting FXR–coactivator interaction in the intestine as a novel therapeutic strategy for MASH” (Life Metabolism, 2025):

Tests used:
MCD diet-induced MASH = MCD diet-induced MASH mice, long-term model; type: in vivo, mouse; settings: oral, 4 weeks, DC646 10 mg/kg, GUDCA 50 mg/kg
Procedure: For the long-term MASH model, 8- to 10-week-old male C57BL/6 J mice were fed with an MCS diet or MCD diet for 2 weeks, before the MCD models were administered with vehicle or GUDCA (50 mg/kg), OCA (30 mg/kg), and DC646 (10 mg/kg) for 4 weeks. The serum, liver, and intestine were collected 2 h after the final dosing. Male Fxr^△IE mice (8–10 weeks old) were fed with a GAN diet for 20 weeks and administered with vehicle or DC646 (10 mg/kg) from the 12th week for 8 weeks. The serum, liver, and intestine were collected 2 h after the final dosing.
The intestine and liver were frozen in liquid nitrogen and stored at −80°C. RNA was extracted, and complementary DNA was synthesized from 1 μg total RNA. RT-qPCR was performed on a Bio-Rad CFX384 Touch detection system (Bio-Rad). The primer sequences for RT-qPCR are shown in Supplementary Table S5. RNA levels were analyzed by 2-^ΔΔCt, normalized to 18S ribosomal RNA and expressed as fold change relative to the control group.
Hepatic TG and TC, and plasma ALT and AST levels were measured using commercial kits from Nanjing Jiancheng Bioengineering Institute according to the manufacturer’s instructions. To measure hepatic TG contents, liver tissues (~10 mg) were homogenized in 100 μL 1% TritonX-100 and centrifuged at 3000 rpm for 10 min. Supernatants were collected, and 2 μL samples were incubated with 200 μL reaction buffer at 37°C for 10 min. Hepatic TG or TC levels were read at 510 or 500 nm using a microplate reader (Versamax, Molecular Devices) and normalized using the protein concentration. To measure plasma ALT and AST levels, reaction buffer 1 and reaction buffer 2 were mixed at a ratio of 1:1, before adding 2 μL plasma sample and 200 μL mixed reaction buffer in a 96-well plate. The data were acquired using the kinetic mode with an interval of 30 s and 31 total reads at 340 nm using a microplate reader (Versamax, Molecular Devices).
Tissue specimens were fixed in 10% formalin for 12–24 h before being dehydrated and paraffin-embedded. The sections were stained with H&E. The NAS was calculated as a summary score including individual components of steatosis (0–3), lobular inflammation (0–3), and hepatocyte ballooning (0–2) for each liver section by a blinded liver pathologist, and the results were reviewed by a blinded hepatologist according to a previous protocol. To visualize liver fibrosis, paraffin-embedded tissue samples were stained with Sirius Red to characterize the collagen deposition. To visualize lipid accumulation and inflammation in the liver, frozen liver sections were stained with Oil Red O and F4/80, and images were acquired using a Leica DM6B laser microdissection system. At least three discontinuous liver sections were evaluated for each mouse.

[1] = biological target: T1, human FXR alpha (hFXRα)-LBD / SRC2-3 peptide (Homo sapiens, UniProt Q96RI1); assay: AlphaScreen assay, recruitment of coactivator peptide SRC2-3 to His-hFXRα-LBD; type: biochemical
T1 construct: 100 nmol/L 6*His-hFXRα-LBD and 100 nmol/L biotinylated co-factor peptide
T1 sequence (Q96RI1 262-486 limits assumed): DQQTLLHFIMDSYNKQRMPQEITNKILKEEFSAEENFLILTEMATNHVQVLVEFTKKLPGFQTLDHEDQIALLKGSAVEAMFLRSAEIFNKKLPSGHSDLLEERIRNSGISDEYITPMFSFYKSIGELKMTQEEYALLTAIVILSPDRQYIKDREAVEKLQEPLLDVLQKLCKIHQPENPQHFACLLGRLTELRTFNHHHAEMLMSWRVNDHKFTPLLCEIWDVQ
Procedure: (§1) An AlphaScreen technology-based assay was performed according to the manufacturer’s instructions with a minor revision. Briefly, the experiment was conducted with compounds at the indicated concentrations, 100 nmol/L 6*His-hFXRα-LBD and 100 nmol/L biotinylated co-factor peptide in the buffer containing 50 mmol/L MOPS, 50 μmol/L CHAPS, 50 mmol/L NaF, and 0.1 mg/mL BSA, pH 7.4. The mixture was incubated with 50 μg/mL nickel acceptor beads and 50 μg/mL streptavidin donor beads in a 384-well plate under green light in the dark at room temperature, before conducting fluorescence measurement with excitation at 680 nm and emission at 550 nm on an Envision microplate analyzer (PE 2102-8340, PerkinElmer Life Sciences).

[2] = biological target: T2, human FXR alpha (hFXRα)-LBD / NcoR2 peptide (Homo sapiens, UniProt Q96RI1); assay: AlphaScreen assay, recruitment of corepressor peptide NcoR2 to His-hFXRα-LBD; type: biochemical; settings: compound alone incubated with His-hFXRα-LBD; read-out: EC50 in recruiting the NcoR2 peptide
T2 construct: 100 nmol/L 6*His-hFXRα-LBD and 100 nmol/L biotinylated co-factor peptide
T2 sequence (Q96RI1 262-486 limits assumed): T1 sequence (Q96RI1 262-486 limits assumed)
Procedure: as §1

`C[C@H](CCC(=O)NCC(=O)O)[C@H]1CC[C@H]2[C@@H]3[C@@H](O)C[C@@H]4C[C@H](O)CC[C@]4(C)[C@H]3CC[C@]12C` [GUDCA, glycoursodeoxycholic acid, reference compound] was tested, and the “Hepatic mRNA levels of inflammation-related genes” value (MCD diet-induced MASH) was “significantly decreased” and the “Hepatic mRNA levels of lipid metabolism-related genes / hepatic lipid accumulation” value (MCD diet-induced MASH; OCA 30 mg/kg) was “only had minor effect”.

For `CC[C@H]1[C@@H](O)[C@@H]2[C@H](CC[C@]3(C)[C@@H]([C@H](C)CCC(=O)O)CC[C@@H]23)[C@@]2(C)CC[C@@H](O)C[C@@H]12` [OCA, reference compound], the “Hepatic mRNA levels of lipid metabolism-related genes / hepatic lipid accumulation” value (MCD diet-induced MASH; OCA 30 mg/kg) was “markedly downregulated” and the “Serum alanine aminotransferase (ALT) level” value (MCD diet-induced MASH; OCA 30 mg/kg) was “cannot improve”.

Ivermectin [reference compound] gave an EC50 ([1]; compound alone incubated with His-hFXRα-LBD, read-out: EC50 in recruiting the SRC2-3 peptide) of 960 nM and an EC50 [2] of 2190 nM.

With “N,N'-((1^2S,1^4R,14^2S,14^4R,4S,17S)-5,13,18,26-tetraoxo-2^1,15^1-bis(triisopropylsilyl)-2^1H,15^1H-6,19-dioxa-12,25-diaza-1(4,2),14(2,4)-dimorpholina-2,15(4,3)-diindolacyclohexacosaphane-4,17-diyl)bis(1,1,1-trifluoromethanesulfonamide) [DC644]” the “Inhibition of SRC2-3 recruitment in the presence of CDCA (library screen)” value ([1]; DC644 at 10 μmol/L compared with GUDCA and GlyMCA at 50 μmol/L) was “more potent”.
